What was measured:
Assay type in all cases: in vivo
[1] = system: barnyardgrass (Echinochloa crus-galli); experiment: Test A preemergence; conditions: Echinochloa crus-galli, pre-emergence, 240 h; for pest or weed control at 125 g/ha: 125 g ai/ha, Preemergence, visual injury rating after approximately 10 d, read-out: Barnyardgrass plant response rating (0 to 100 scale, 0 is no effect, 100 is complete control); for pest or weed control at 500 g/ha: 500 g ai/ha, preemergence, visual injury rating about 10 d after treatment, 0 to 100 scale (0 no effect, 100 complete control), read-out: Barnyardgrass plant response rating
How it was run: (§1)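 Seeds sprayed preemergence with a directed soil spray, or plants at 2 to 10 cm height and one- to two-leaf stage sprayed postemergence, with test chemicals in a non-phytotoxic solvent mixture containing surfactant, in loam soil–sand blend. Injury rated visually against untreated controls after about 10 d in greenhouse, 0 (no effect) to 100 (complete control).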

[2] = system: pigweed (Amaranthus retroflexus); experiment: Test A preemergence; conditions: Amaranthus retroflexus, pre-emergence, 240 h; for pest or weed control at 125 g/ha: 125 g ai/ha, Preemergence, visual injury rating after approximately 10 d, read-out: Pigweed plant response rating (0 to 100 scale, 0 is no effect, 100 is complete control); for pest or weed control at 500 g/ha: 500 g ai/ha, preemergence, visual injury rating about 10 d after treatment, 0 to 100 scale (0 no effect, 100 complete control), read-out: Pigweed plant response rating
[3] = system: ragweed (common ragweed, Ambrosia elatior); experiment: Test A preemergence; conditions: Ambrosia artemisiifolia, pre-emergence, 240 h; for pest or weed control at 125 g/ha: 125 g ai/ha, Preemergence, visual injury rating after approximately 10 d, read-out: Ragweed plant response rating (0 to 100 scale, 0 is no effect, 100 is complete control); for pest or weed control at 500 g/ha: 500 g ai/ha, preemergence, visual injury rating about 10 d after treatment, 0 to 100 scale (0 no effect, 100 complete control), read-out: Ragweed plant response rating
How it was run: as §1

[4] = system: ryegrass, Italian (Italian ryegrass, Lolium multiflorum); experiment: Test A preemergence; conditions: Lolium multiflorum, pre-emergence, 240 h; for pest or weed control at 125 g/ha: 125 g ai/ha, Preemergence, visual injury rating after approximately 10 d, read-out: Ryegrass, Italian plant response rating (0 to 100 scale, 0 is no effect, 100 is complete control); for pest or weed control at 500 g/ha: 500 g ai/ha, preemergence, visual injury rating about 10 d after treatment, 0 to 100 scale (0 no effect, 100 complete control), read-out: Ryegrass, Italian plant response rating
How it was run: as §1

Kochia (Kochia scoparia) [5] = experiment: Test A preemergence; conditions: Bassia scoparia, pre-emergence, 240 h; for pest or weed control at 125 g/ha: 125 g ai/ha, Preemergence, visual injury rating after approximately 10 d, read-out: Kochia plant response rating (0 to 100 scale, 0 is no effect, 100 is complete control); for pest or weed control at 500 g/ha: 500 g ai/ha, preemergence, visual injury rating about 10 d after treatment, 0 to 100 scale (0 no effect, 100 complete control), read-out: Kochia plant response rating
How it was run: as §1

[6] = system: giant foxtail (Setaria faberii); experiment: Test A preemergence; conditions: Setaria faberi, pre-emergence, 240 h; for pest or weed control at 125 g/ha: 125 g ai/ha, Preemergence, visual injury rating after approximately 10 d, read-out: Foxtail, Giant plant response rating (0 to 100 scale, 0 is no effect, 100 is complete control); for pest or weed control at 500 g/ha: 500 g ai/ha, preemergence, visual injury rating about 10 d after treatment, 0 to 100 scale (0 no effect, 100 complete control), read-out: Foxtail, Giant plant response rating
How it was run: as §1

[7] = system: sedge, umbrella (small-flower umbrella sedge, Cyperus difformis); experiment: Test B flooded paddy test; conditions: Cyperus difformis, 250 g ai/ha, Flood; 0 to 100 scale where 0 is no effect and 100 is complete control; read-out: Sedge, Umbrella plant response rating
How it was run: (§2)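 Flooding to 3 cm over soil accompanied treatment, which consisted of adding compound to the standing water around 2-leaf plants; depth was then maintained. Visual assessment versus controls followed at 13 to 15 d (scale 0–100, 0 meaning no effect).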

[8] = system: barnyardgrass (Echinochloa crus-galli); experiment: Test B flooded paddy test; conditions: Echinochloa crus-galli, 250 g ai/ha, Flood; 0 to 100 scale where 0 is no effect and 100 is complete control; read-out: Barnyardgrass plant response rating
How it was run: as §2

[9] = system: ducksalad (Heteranthera limosa); experiment: Test B flooded paddy test; conditions: Heteranthera limosa, 250 g ai/ha, Flood; 0 to 100 scale where 0 is no effect and 100 is complete control; read-out: Ducksalad plant response rating
How it was run: as §2

rice (Oryra sativa) = experiment: Test B flooded paddy test; conditions: Oryza sativa, 250 g ai/ha, Flood; 0 to 100 scale where 0 is no effect and 100 is complete control; read-out: Rice plant response rating
How it was run: as §2

[10] = system: wheat (Triticum aestivum); experiment: Test A postemergence; conditions: Triticum aestivum, post-emergence, 240 h, read-out: Plant response rating, Wheat; for plant injury at 125 g/ha: 125 g ai/ha, Postemergence, visual injury after approximately 10 d, 0 to 100 scale where 0 is no effect and 100 is complete control; for plant injury at 500 g/ha: 500 g ai/ha, postemergence, visual injury, 0 to 100 scale (0 no effect, 100 complete control), approx. 10 d
How it was run: as §1

[11] = system: barnyardgrass (Echinochloa crus-galli); experiment: Test A postemergence; conditions: Echinochloa crus-galli, post-emergence, 240 h, read-out: Plant response rating, Barnyardgrass; for pest or weed control at 125 g/ha: 125 g ai/ha, Postemergence, visual injury after approximately 10 d, 0 to 100 scale where 0 is no effect and 100 is complete control; for pest or weed control at 500 g/ha: 500 g ai/ha, postemergence, visual injury, 0 to 100 scale (0 no effect, 100 complete control), approx. 10 d
How it was run: as §1

[12] = system: pigweed (Amaranthus retroflexus); experiment: Test A postemergence; conditions: Amaranthus retroflexus, post-emergence, 240 h, read-out: Plant response rating, Pigweed; for pest or weed control at 125 g/ha: 125 g ai/ha, Postemergence, visual injury after approximately 10 d, 0 to 100 scale where 0 is no effect and 100 is complete control; for pest or weed control at 500 g/ha: 500 g ai/ha, postemergence, visual injury, 0 to 100 scale (0 no effect, 100 complete control), approx. 10 d
How it was run: as §1

[13] = system: ragweed (common ragweed, Ambrosia elatior); experiment: Test A postemergence; conditions: Ambrosia artemisiifolia, post-emergence, 240 h, read-out: Plant response rating, Ragweed; for pest or weed control at 125 g/ha: 125 g ai/ha, Postemergence, visual injury after approximately 10 d, 0 to 100 scale where 0 is no effect and 100 is complete control; for pest or weed control at 500 g/ha: 500 g ai/ha, postemergence, visual injury, 0 to 100 scale (0 no effect, 100 complete control), approx. 10 d
How it was run: as §1

[14] = system: ryegrass, Italian (Italian ryegrass, Lolium multiflorum); experiment: Test A postemergence; conditions: Lolium multiflorum, post-emergence, 240 h, read-out: Plant response rating, Ryegrass, Italian; for pest or weed control at 125 g/ha: 125 g ai/ha, Postemergence, visual injury after approximately 10 d, 0 to 100 scale where 0 is no effect and 100 is complete control; for pest or weed control at 500 g/ha: 500 g ai/ha, postemergence, visual injury, 0 to 100 scale (0 no effect, 100 complete control), approx. 10 d
How it was run: as §1

Kochia (Kochia scoparia) [15] = experiment: Test A postemergence; conditions: Bassia scoparia, post-emergence, 240 h, read-out: Plant response rating, Kochia; for pest or weed control at 125 g/ha: 125 g ai/ha, Postemergence, visual injury after approximately 10 d, 0 to 100 scale where 0 is no effect and 100 is complete control; for pest or weed control at 500 g/ha: 500 g ai/ha, postemergence, visual injury, 0 to 100 scale (0 no effect, 100 complete control), approx. 10 d
How it was run: as §1

[16] = system: blackgrass (Alopecurus myosuroides); experiment: Test A postemergence; conditions: Alopecurus myosuroides, post-emergence, 240 h, read-out: Plant response rating, Blackgrass; for pest or weed control at 125 g/ha: 125 g ai/ha, Postemergence, visual injury after approximately 10 d, 0 to 100 scale where 0 is no effect and 100 is complete control; for pest or weed control at 500 g/ha: 500 g ai/ha, postemergence, visual injury, 0 to 100 scale (0 no effect, 100 complete control), approx. 10 d
How it was run: as §1

[17] = system: Galium (catchweed bedstraw, Galium aparine); experiment: Test A postemergence; conditions: Galium, post-emergence, 240 h, read-out: Plant response rating, Galium; for pest or weed control at 125 g/ha: 125 g ai/ha, Postemergence, visual injury after approximately 10 d, 0 to 100 scale where 0 is no effect and 100 is complete control; for pest or weed control at 500 g/ha: 500 g ai/ha, postemergence, visual injury, 0 to 100 scale (0 no effect, 100 complete control), approx. 10 d
How it was run: as §1

[18] = system: giant foxtail (Setaria faberii); experiment: Test A postemergence; conditions: Setaria faberi, post-emergence, 240 h, read-out: Plant response rating, Foxtail, Giant; for pest or weed control at 125 g/ha: 125 g ai/ha, Postemergence, visual injury after approximately 10 d, 0 to 100 scale where 0 is no effect and 100 is complete control; for pest or weed control at 500 g/ha: 500 g ai/ha, postemergence, visual injury, 0 to 100 scale (0 no effect, 100 complete control), approx. 10 d
How it was run: as §1

corn (Zea mays) = experiment: Test A postemergence; conditions: Zea mays, post-emergence, 240 h; for Corn plant response rating (crop injury, 0 = no effect, 100 = complete kill) at 125 g/ha: 125 g ai/ha, Postemergence, visual injury after approximately 10 d, 0 to 100 scale where 0 is no effect and 100 is complete control; for Corn plant response rating (crop injury, 0 = no effect, 100 = complete kill) at 500 g/ha: 500 g ai/ha, postemergence, visual injury, 0 to 100 scale (0 no effect, 100 complete control), approx. 10 d
How it was run: as §1

| SMILES | pest or weed control at 125 g/ha [1] [%] | pest or weed control at 500 g/ha [1] [%] | pest or weed control at 125 g/ha [2] [%] | pest or weed control at 500 g/ha [2] [%] | pest or weed control at 125 g/ha [3] [%] | pest or weed control at 500 g/ha [3] [%] | pest or weed control at 125 g/ha [4] [%] | pest or weed control at 500 g/ha [4] [%] | pest or weed control at 125 g/ha (Kochia (Kochia scoparia) [5]) [%] | pest or weed control at 500 g/ha (Kochia (Kochia scoparia) [5]) [%] | pest or weed control at 125 g/ha [6] [%] | pest or weed control at 500 g/ha [6] [%] | pest or weed control at 250 g/ha [7] [%] | pest or weed control at 250 g/ha [8] [%] | pest or weed control at 250 g/ha [9] [%] | pest or weed control at 250 g/ha (rice (Oryra sativa)) [%] | plant injury at 125 g/ha [10] [%] | plant injury at 500 g/ha [10] [%] | pest or weed control at 125 g/ha [11] [%] | pest or weed control at 500 g/ha [11] [%] | further results |
| --- | --- | --- | --- | --- | --- | --- | --- | --- | --- | --- | --- | --- | --- | --- | --- | --- | --- | --- | --- | --- | --- |
| CN1CC[C@H](c2ccc(OC(F)(F)F)cc2)[C@@H](C(=O)Nc2ccc(F)c(F)c2F)C1=O [Compound 1000] | 0 | 60 | 20 | 40 | 0 | 0 | 0 | 20 | 0 | 0 | 70 | 90 | 0 | 0 | 90 | 0 | 0 | 0 | 60 | 100 | pest or weed control at 125 g/ha [12]: 0%; pest or weed control at 500 g/ha [12]: 0%; pest or weed control at 125 g/ha [13]: 0%; pest or weed control at 500 g/ha [13]: 0%; pest or weed control at 125 g/ha [14]: 0%; pest or weed control at 500 g/ha [14]: 0%; pest or weed control at 125 g/ha (Kochia (Kochia scoparia) [15]): 40%; pest or weed control at 500 g/ha (Kochia (Kochia scoparia) [15]): 40%; pest or weed control at 125 g/ha [16]: 0%; pest or weed control at 500 g/ha [16]: 0%; pest or weed control at 125 g/ha [17]: 0%; pest or weed control at 500 g/ha [17]: 0%; pest or weed control at 125 g/ha [18]: 0%; pest or weed control at 500 g/ha [18]: 50%; Corn plant response rating (crop injury, 0 = no effect, 100 = complete kill) at 125 g/ha (corn (Zea mays)): 0%; Corn plant response rating (crop injury, 0 = no effect, 100 = complete kill) at 500 g/ha (corn (Zea mays)): 20% |
| CSc1ccccc1NC(=O)[C@H]1C(=O)N(C)CC[C@@H]1c1ccc(OC(F)(F)F)cc1 [Compound 1001] | 0 | 0 | 0 | 0 | 0 | 0 | 0 | 0 | 0 | 0 | 0 | 0 | 0 | 0 | 0 | 0 | 0 | 0 | 0 | 0 | pest or weed control at 125 g/ha [12]: 0%; pest or weed control at 500 g/ha [12]: 0%; pest or weed control at 125 g/ha [13]: 0%; pest or weed control at 500 g/ha [13]: 0%; pest or weed control at 125 g/ha [14]: 0%; pest or weed control at 500 g/ha [14]: 0%; pest or weed control at 125 g/ha (Kochia (Kochia scoparia) [15]): 0%; pest or weed control at 500 g/ha (Kochia (Kochia scoparia) [15]): 0%; pest or weed control at 125 g/ha [16]: 0%; pest or weed control at 500 g/ha [16]: 0%; pest or weed control at 125 g/ha [17]: 0%; pest or weed control at 500 g/ha [17]: 0%; pest or weed control at 125 g/ha [18]: 0%; pest or weed control at 500 g/ha [18]: 0%; Corn plant response rating (crop injury, 0 = no effect, 100 = complete kill) at 125 g/ha (corn (Zea mays)): 0%; Corn plant response rating (crop injury, 0 = no effect, 100 = complete kill) at 500 g/ha (corn (Zea mays)): 0% |

Reference: patent US12077503B2, “Substituted cyclic amides and their use as herbicides” (FMC CORPORATION, priority 2015, dated 2024)
